Results on eight compounds are retold here after patent US8513267B2, “4-anilinoquinazoline derivatives with adenosine-kinase inhibitor properties” (Universidade Estadual de Campinas-Unicamp, priority 2004, dated 2013).

Like-named read-outs stand apart in the source and are kept apart here.

The subject of data set [1] is isolated rat hearts. The data set is described as follows: Concentration-response of quinazoline compounds on left ventricle systolic pressure and heart rate of isolated rat hearts. To be noted: for increase in systolic pressure: according to basal absolute values of systolic pressure; for bradycardia response: decrease in heart rate compared to basal values; for Final heart rate: final value after infusions of increased concentrations; for Emax in the fractional pressor response: fractional values; for Initial heart rate: initial value before infusions of increased concentrations; for maximum pressor response (LVP): isolated rat hearts, infused concentrations 30 pM-2 μM. An excerpt: Systolic pressure responses of the left ventricle were expressed as fractional values, while heart rate responses were expressed as absolute values. […] EC50: concentration of the drug that produces half of the maximum effect.

Data set [2] has as its system myocardium of isolated rat hearts. The data set is described as follows: Adenosine dosage (HPLC) in the myocardium of isolated rat hearts. An excerpt: We conducted adenosine dosages in the myocardium of isolated rat hearts with compounds 4d (Example 7) and 4i (Example 17). Chromatograms obtained through HPLC experiments in rat myocardium extracts for dosage of tissue adenosine and AMP are presented in FIG. 6.

Data set [3] has as its target T1, cardiac adenosine kinase (Rattus norvegicus, UniProt Q64640).
T1 construct: used as a substrate in myocardium extracts; from tissue; host or cells: rat myocardium (heart) extract
The data set is described as follows: HPLC adenosine kinase activity test with derivatized adenosine as substrate in myocardium extracts. The data set is classed as biochemical. To be noted: fluorescence detection.

Data set [4] relates to isolated hearts. The data set can be described thus: Isolated hearts perfused with propanolol, diltiazem or reduced calcium concentration. More on the design: species or system rat. To be noted: propanolol or diltiazem blocking, or decreased calcium in perfusion buffer. An excerpt:
There was also a negative correlation between levels of ventricular pressure and heart rate in isolated hearts treated with increased doses of compound 4i (Example 17) in the presence of blockers like propanolol and diltiazem, and reduced concentrations of calcium in the perfusion buffer. In FIG. 11, we presented diagrams of the correlation between increase in systolic pressure and decrease in heart rate in isolated hearts submitted to injections (bolus) of 4i (Example 17) perfused with propanolol, diltiazem and with reduction of the calcium concentration in the perfusion buffer. Data are presented as mean±S.E.M.
Results obtained with 4i (Example 17) and other quinazoline compounds point out that the main functional effect of these compounds on isolated rat hearts is bradycardia, and the pressor effect depends on bradycardia, and thus is a consequence of particularities of the preparation used (i.e., isolated heart) and not a direct effect. Because the bradycardia response was not altered by propanolol or diltiazem blocking, or even by decrease in calcium concentration in the perfusion buffer, our hypothesis is that this effect of quinazoline compounds depends on a direct effect of them on pacemaker cells, or even on an indirect effect through secretion of autocrine or paracrine compounds. […]

In data set [5] the test system is isolated rat hearts. The data set can be described thus: Heart rate of isolated rat hearts perfused with HEPES buffer with 1 nM 4i with or without 8-PT. How it is done: In FIG. 14, we present diagrams that represent heart rates of isolated rat hearts perfused with pure HEPES buffer (control), or HEPES buffer with 1 nM of 4i (Example 17), or HEPES buffer with 1 nM of 4i (Example 17) plus 1 μM of unspecific inhibitor of adenosine receptors, 8-PT (4i+8-PT). […] However, perfusion of hearts with 4i (Example 17) and 8-PT annulled bradycardia caused by 4i (Example 17), confirming our hypothesis that the quinazoline compound could be acting in a direct or indirect way on adenosine receptors. In Table 5, we present heart rate values (bpm) from individual experiments of isolated hearts perfused with pure HEPES buffer (control), HEPES buffer with 1 nM of 4i (Example 17), or HEPES buffer with 1 nM of 4i (Example 17) and […] of 8-PT (mean±S.E.M.).

Data set [6] deals with isolated rat hearts. The data set can be described thus: Concentration-response in isolated heart with heart rate held constant by electrical stimulator. To be noted: heart rate held constant by electrical stimulator (FIG. 12). An excerpt:
In order to confirm our hypothesis that pressor response of compound 4i depends on bradycardia and not on a direct action of 4i in the inotropism of isolated rat hearts, we conducted experiments where heart rate was held constant during infusion of increased concentrations of 4i (Example 17), through the action of an electrical stimulator. In FIG. 12 we represent the concentration-response relationship to 4i (Example 17) in isolated heart submitted to electrical stimulus.

Data set [7] relates to isolated hearts. The data set can be described thus: Concentration-effect experiments with adenosine with and without 8-PT in isolated hearts. More on the design: species or system rat. To be noted: for EC50: Rattus norvegicus. How it is done:
In Table 3, we present values of Emax, EC50 (nM) and LogEC50 in the fractional pressor response to infusion of increased concentrations of adenosine in isolated hearts perfused with pure HEPES buffer, or with HEPES buffer with 8-PT (mean±S.E.M.).
Both effects were altered by the action of the unspecific adenosine receptor inhibitor, 8-PT (1 μM), added to the perfusion buffer. According to results presented in FIG. 13, the increase in systolic pressure in response to infusion of increased concentrations of adenosine, both in control hearts as in those treated with the unspecific adenosine inhibitor, was almost the same. […] Concerning heart rate, the adenosine bradycardia effect was reduced when the inhibitor was present, showing a decrease of about 15% if compared to basal values of Table 4, where we present initial and final heart rate values (bpm) in the response to infusion of increased concentrations of adenosine in isolated hearts perfused with pure HEPES buffer and HEPES buffer with 8-PT (mean±S.E.M.).

The mark [8] stands for this setting: Rattus norvegicus, mean±S.E.M., given as negative log values, read-out: LogEC50 in the fractional pressor response (converted).
[9] abbreviates: Rattus norvegicus, mean±S.E.M., infusion of increased concentrations, read-out: EC50 in the fractional pressor response.
[10] abbreviates: mean±S.E.M., infusion of increased concentrations, hydrochloride.

T1 sequence (Q64640 whole entry): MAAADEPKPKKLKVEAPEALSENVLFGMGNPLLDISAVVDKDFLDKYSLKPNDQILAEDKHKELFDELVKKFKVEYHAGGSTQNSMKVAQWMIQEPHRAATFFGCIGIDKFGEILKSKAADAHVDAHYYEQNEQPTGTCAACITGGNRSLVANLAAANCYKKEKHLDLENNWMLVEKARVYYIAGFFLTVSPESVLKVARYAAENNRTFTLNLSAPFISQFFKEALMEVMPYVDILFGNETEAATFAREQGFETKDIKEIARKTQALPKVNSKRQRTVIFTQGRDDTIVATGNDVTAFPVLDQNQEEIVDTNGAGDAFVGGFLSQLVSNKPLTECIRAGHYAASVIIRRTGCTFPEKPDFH

A word on the melting point: it is the temperature of the solid-liquid transition. Regarding `COc1cc2ncnc(Nc3ccc(I)cc3)c2cc1OC.Cl`, the melting point is 266 to 269 °C.

Turning to `COc1cc2ncnc(Nc3ccc(C)cc3)c2cc1OC.Cl`, the melting point is 227 to 229 °C.

`COc1cc2ncnc(Nc3cccc(C(C)=O)c3)c2cc1OC.Cl` yielded a melting point of 219 to 221 °C.

In turn, `COc1cc2ncnc(Nc3ccc(C(C)=O)cc3)c2cc1OC.Cl` returned a melting point of 218 to 220 °C.

Regarding `COc1cc2ncnc(Cl)c2cc1OC` [3a, 4-chloro-6,7-dimethoxyquinazoline], in data set [1] (setting [8]), the EC50 is 0.631 nM. The EC50 in data set [1] (setting [9]) turned out to be 0.6 ± 0.5 nM. Also, in data set [1], the “increase in systolic pressure” value is ~30% and the bradycardia response is recorded as ~29%. Besides, in data set [1] (mean±S.E.M.), the Final heart rate was 173 ± 1 bpm and the Initial heart rate was 242 ± 5 bpm. Also, the “Emax in the fractional pressor response” value in data set [1] (mean±S.E.M., infusion of increased concentrations) came to 0.6±0.2.

Turning to `COc1cc2ncnc(Nc3cccc(Br)c3)c2cc1OC.Cl` [4d, 6,7-Dimethoxy-4-(3′-bromoanilino)quinazoline hydrochloride], the EC50 in data set [1] (setting [8]) was 6.31 nM. For the same compound, in data set [1] (setting [9]), the EC50 came to 6 ± 1.2 nM. Moreover, in data set [1], the “increase in systolic pressure” value is ~14%, the bradycardia response is reported as ~25% and the “maximum pressor response (LVP)” value worked out at 8±4 mmHg. In addition, in data set [1] (mean±S.E.M.), the Final heart rate is recorded as 164 ± 3 bpm and the Initial heart rate turned out to be 219 ± 12 bpm. Also, the “Emax in the fractional pressor response” value in data set [1] (setting [10]) was determined as 0.3±0.1. In addition, in data set [2] (chromatograms of rat myocardium extracts (FIG. 6)), the “effect on amount of myocardial adenosine” value is given as “increased substantially”. The myocardial adenosine value in data set [2] (hearts treated with compound, average, basal value 0.48) is on record as 0.75 nmol/mg of protein. Further, the adenosine kinase inhibition result in data set [3] was “adenosine kinase inhibitors”.

Regarding `COc1cc2ncnc(Nc3cccc(N(C)C)c3)c2cc1OC.Cl` [4i, 6,7-Dimethoxy-4-(3′-N′,N′-dimethylaminoanilino)quinazoline hydrochloride], the “bradycardia response under blocking” value in data set [4] is recorded as “not altered”. In addition, the “reduction of heart rate” value in data set [5] (1 nM 4i, compared to control hearts) was “approximately 17%”. Besides, the “Heart Rate” value in data set [5] (HEPES buffer with 1 nM 4i, control 233 ± 7) came to 194 ± 7 bpm. Besides, in data set [1], the “increase in systolic pressure” value is “approximately 35%”, the bradycardia response entry is given as “approximately 24%” and the “maximum pressor response (LVP)” value worked out at 27±3 mmHg. Moreover, in data set [1] (mean±S.E.M.), the Final heart rate turned out to be 173 ± 8 bpm and the Initial heart rate is recorded as 228 ± 7 bpm. Further, the “Emax in the fractional pressor response” value in data set [1] (setting [10]) was 0.9±0.2. Further, in data set [1] (mean±S.E.M., given as negative log values), the “LogEC50 in the fractional pressor response” value is on record as −9.9 ± 0.3. In addition, the EC50 in data set [1] (mean±S.E.M., infusion of increased concentrations, read-out: EC50 in the fractional pressor response) was determined as 0.1 ± 0.03 nM. Besides, the adenosine kinase inhibition result in data set [3] was “adenosine kinase inhibitors”. In addition, the “pressor response with heart rate controlled” value in data set [6] is recorded as “almost annulled”.

As for `Nc1ncnc2c1ncn2[C@@H]1O[C@H](CO)[C@@H](O)[C@H]1O` [Adenosine, adenosine], in data set [7] (1 μM adenosine (maximum response)), the “increase in ventricular pressure” value came to 16±2 mmHg. The “decrease in heart rate” value in data set [7] (8-PT (1 μM) present, compared to basal values) was “about 15%”. Also, the EC50 is 30 ± 19 nM in data set [7] (HEPES buffer with 8-PT (1 μM), read-out: EC50 pressor response); 6.31 nM in data set [7] (pure HEPES buffer, given as negative log values, read-out: LogEC50 in the fractional pressor response (converted)); 7 ± 1.4 nM in data set [7] (pure HEPES buffer, mean±S.E.M., read-out: EC50 pressor response); 1.8 ± 1.4 nM in data set [7] (pure HEPES buffer, read-out: EC50 bradycardia response). Further, in data set [7] (compared to absolute basal values, 1 μM adenosine (maximum response)), the “reduction in heart rate” value is “approximately 19%”. Moreover, in data set [7] (pure HEPES buffer, final value after increased concentrations), the “Final heart rate” value came to 185 ± 2 bpm. Besides, the “Initial heart rate” value in data set [7] (pure HEPES buffer, initial value) is recorded as 228 ± 2 bpm. Further, in data set [7] (pure HEPES buffer, mean±S.E.M.), the “Emax in the fractional pressor response” value is 0.93 ± 0.05.
